The subject of data set [1] is 1A9 ovarian carcinoma. The experiment in a line: Anchorage Dependent Growth Monolayer Assay (ADGMA), MTT, 3-day exposure. The data set is classed as cell-based. The settings on record: Homo sapiens, read-out: IC50 (average±S.E.M.) 1A9. The source says: (§1) As indicated above, all of the compounds of formula I are anti-tumor agents and are, therefore, useful in inhibiting the growth of various lymphomas, sarcomas, carcinomas, myelomas, and leukemia cell lines. […] This assay was adapted from the 60 cell line assay used by the National Cancer Institute (NCI) with the following modifications:
(§2) 1) four cell lines representative for the important tumor types, viz., MIP 101 colon carcinoma, HCT 116 colon carcinoma, 1A9 ovarian carcinoma and 1A9PTX22 ovarian carcinoma were utilized; and
(§3) 2) a tetrazolium derivative, viz., MTT, was utilized to determine cell density.
(§4) The ADGMA compares the number of viable cells following a 3-day exposure to a test compound relative to a number of cells present at the time the test compound was added. […] The absorbence at 540 nm (A540) of the formazan derivative is proportional to the number of viable cells. The IC50 for a test compound is the concentration of compound required to reduce the final cell number to 50% of the final control cell number. If cell proliferation is inhibited, the assay further defines compounds as cytostatic (cell number after 3-day compound incubation>cell number at time of compound addition) or cytotoxic (cell number after 3-day compound incubation<cell number at time of compound addition).
(§5) The HCT 116 colon carcinoma cell line was obtained from the American Type Culture Collection (ATCC, Rockville, Md.). The MIP 101 colon carcinoma was obtained from Dr. Robert Kramer (Bristol Meyers Squibb) and was previously described (Niles R M, Wilhelm S A, Steele G D JR, Burke B, Christensen T, Dexter D, O'Brien M J, Thomas P, Zamcheck N. Isolation and characterization of an undifferentiated human colon carcinoma cell line (MIP-101). Cancer Invest. 1987;5(6):545-52.). The 1A9 and the 1A9PTX22 ovarian tumor cell lines were obtained from Dr. Tito Fojo, Medicine Branch, Division of Clinical Sciences, National Cancer Institute, National Institutes of Health, Bethesda, Md. 20892. The 1A9 is a clone of the ovarian carcinoma cell line, A2780 (Giannakakou P, Sackett, D L, Kang Y -K, Zhan Z, Buters J T M, Fojo T, Poruchynsky M S. Paclitaxel-resistant human ovarian cancer cells have mutant β-tubulins that impaired paclitaxel-driven polymerization. J. Biol. Chem. 1997, 272(4):17118-17125). The 1A9PTX22 subline was isolated as an individual clone from the 1A9 cell line in a single step selection by exposure to 5 ng/mL paclitaxel in the presence of 5 μg/mL of verapamil. All cell lines were used between passages 4-20 following thawing. MIP 101 colon carcinoma, HCT 116 colon carcinoma, 1A9 ovarian carcinoma and 1A9PTX22 ovarian carcinoma cell lines are maintained and plated in RPMI 1640 medium containing 10% fetal bovine serum.
(§6) Cells are trypsinized and counted using hemacytometer to determine cell concentrations. Cells were then plated in their respective maintenance media (200 μL/well) in 96-well plates at the following concentrations: MIP 101, 2000 cells/well, HCT 116, 2000 cells/well, 1A9, 10000 cells/well, and 1A9PTX22, 10000 cells/well. […] Initial cell densities, assayed one day after plating, are roughly 0.10-0.20 A540 absorbence units greater than the media blank. Ninety six well plates were seeded on day 0 and the test compounds are added on day 1. A “time 0” plate was created that received media only in row A and one cell line/row in rows B-E. The “time 0” plate was processed 24 hours after plating (at the time when drugs were added to experimental plates), as follows: To each well 5 microliters of the MTT stock solution (0.5 mg/ml in PBS) was added to each well and then incubated for three hours at 37 degrees C., 5% CO2, in a humidified environment. Media was then carefully and completely removed. Plates were allowed to dry in the dark. DMSO (dimethylsulfoxide) was added to each well (100 μl/well) and plates were placed on an orbital shaker for 2 hours. […]

Data set [2] concerns 1A9PTX22 ovarian carcinoma. The data set is described as above. The data set is classed as cell-based. Conditions: Homo sapiens, 1A9/ptx-22, 72 h, read-out: IC50 (average±S.E.M.) 1A9PTX22.
Source text: as §1, §2, §3, §4, §5, §6

The test system of data set [3] is HCT 116 colon carcinoma. The data set is described as above. The data set is classed as cell-based. The settings on record: Homo sapiens, read-out: IC50 (average±S.E.M.) HCT116.
Source text: as §1, §2, §3, §4, §5, §6

The subject of data set [4] is MIP 101 colon carcinoma. The description is as above. The data set is classed as cell-based. Conditions: Homo sapiens, 72 h, read-out: IC50 (average±S.E.M.) MIP101.
Source text: as §1, §2, §3, §4, §5, §6

A short description of data set [5]: Body weight change of athymic nude mice in the hollow fiber model. The settings on record: Paclitaxel 15 mg/kg i.v. daily for 5 days, Ex. 1 45 mg/kg i.v. once; for Δ Mean % Body Weight, Exp. 1: Experiment 1; for Δ Mean % Body Weight, Exp. 2: Experiment 2. The data set is classed as in vivo. Here is the method:
Outbred athymic (nu/nu) female mice (“Chrls:Athymic Nude-nu”, Charles River Laboratories, Wilmington, Mass.) were anesthetized with ip injections of Ketamine/Xylazine (150 mg/kg, and 12 mg/kg body weight, respectively). For the subcutaneous implantation an 11-gauge trocar containing one or two hollow fibers was inserted through an incision made with scissors at the nape of the neck of an animal, and fibers were released by retracting the trocar while depressing the plunger. This procedure was repeated until all four hollow fibers were implanted. One wound clip was used to close the skin incision. After the surgery each animal received a single, subcutaneous injection of 0.4 mg/kg butorphenol to relieve any potential pain. Animals recovered from the anesthesia on a heating pad, before returning to their cages.
One day after the implantation (4 hollow fibers/animal, each hollow fiber containing one cell line: HCT 116, MIP 101, 1A9, and 1A9PTX22) animals were randomly sorted into five groups of six mice/group. The first group was sacrificed, hollow fibers were retrieved, and processed according to a published procedure, to determine the number of viable cells in each fiber (T0.)
The remaining groups were treated as follows:
Group 1: Example 1, 45 mg/kg, iv, once.
Group 2: Vehicle for Example 1 (16.7% Cremophor EL, 8.3% ethanol, 75% D5W), iv, once.
Group 3: Paclitaxel, 15 mg/kg, iv, daily for 5 days.
Group 4: Vehicle for paclitaxel (12.5% Cremophor EL, 12.5% ethanol, 75% D5W) iv, daily for 5 days.
On day 7 all animals were sacrificed, and hollow fibers were retrieved and processed according to a published procedure, to determine the number of viable cells in each fiber (T—for fibers from animals treated with experimental compounds, C—for fibers from animals treated with corresponding vehicles). Antitumor activity was expressed as % Mean ΔT/Mean ΔC [comparing cell growth for treatment group to vehicle control group, where % Mean ΔT/Mean ΔC=(Mean T−Mean T0/Mean C−Mean T0)×100%]. Regressions were calculated using the formula: (1−Mean T/Mean T0)×100%. Statistical significance of the results was uniformly evaluated using a two-tailed Student's t-test, as recommended by a statistician, following analysis of our representative experiments (Colin Goodal, statistical consultant to Novartis, personal communication).

Read-outs that look alike come from different tables or passages of the source.

For the compound `C=C/C=C\[C@H](C)[C@H](OC(N)=O)[C@@H](C)[C@@H](O)[C@@H](C)C/C(C)=C\[C@H](C)[C@@H](O)[C@@H](C)/C=C\[C@@H](O)C[C@H](O)[C@H](C)[C@H](O)[C@@H](C)C(=O)[O-].[Na+]` [Ex. 1, (2R,3S,4S,5S,7S,8Z,10S,11S,12S,13Z,16S,17S,18S,19S,20S,21Z)-19-[(aminocarbonyl)oxy]-3,5,7,11,17-pentahydroxy-2,4,10,12,14,16,18,20-octamethyl-8,13,21,23-tetracosatetraenoic acid, sodium salt], the IC50 in data set [1] (1A9, 72 h) was found to be 100 ± 40 nM; in data set [2] it was 200 ± 90 nM; in data set [3] (HCT-116, 72 h), 50 ± 20 nM; in data set [4], 300 ± 10 nM. Also, in data set [5], the “Δ Mean % Body Weight, Exp. 1” value is listed as “Exp. 1: None”. In addition, the “Δ Mean % Body Weight, Exp. 2” value in data set [5] is “Exp. 2: None”.

On to `CC(=O)O[C@H]1C(=O)[C@@]2(C)[C@H]([C@H](OC(=O)c3ccccc3)[C@]3(O)C[C@H](OC(=O)[C@H](O)[C@@H](NC(=O)c4ccccc4)c4ccccc4)C(C)=C1C3(C)C)[C@]1(OC(C)=O)CO[C@@H]1C[C@@H]2O` [paclitaxel], for which the IC50 in data set [1] (72 h, 1A9 cells, 3-day exposure, MTT) is 47 ± 7 nM; in data set [2] (1A9PTX22 cells, 3-day exposure, MTT), 1 ± 1 nM; in data set [3] (72 h, HCT 116 cells, 3-day exposure, MTT), 0.3 ± 0.2 nM; in data set [4] (MIP 101 cells, 3-day exposure, MTT), 200 ± 60 nM. Besides, the “Δ Mean % Body Weight, Exp. 1” value in data set [5] is recorded as “Exp. 1: None”. Also, the “Δ Mean % Body Weight, Exp. 2” value in data set [5] is listed as “Exp. 2: None”.
